Consider eight compounds from publication PMC10056443, “Derivatives of Amaryllidaceae Alkaloid Ambelline as Selective Inhibitors of Hepatic Stage of Plasmodium berghei Infection In Vitro” (Pharmaceutics, 2023).

Read-outs that look alike come from different tables or passages of the source.

One series has as its system Huh-7 cell line. As to the kind of experiment: Huh-7 cell confluency by alamarBlue assay during hepatic-stage test. The conditions noted are these: human, 46 h, pH 7. In kind it is cell-based. A digest of the protocol: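 Huh-7 human hepatoma cells pre-treated with compound in infection medium 1 h before luciferase-expressing P. berghei sporozoites were added (1:1, 1 × 10^4 per well), then incubated 46 h at 37 °C, 5% CO2. Confluency assessed indirectly by alamarBlue; IC50 from nonlinear-regression fit of normalized dose-response curves.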
In general terms: Alamar Blue is a resazurin reagent that responds to reducing activity.

Series [1] is described as follows: Cytotoxicity assessment in vitro (MTT assay). The note with it: human. In kind it is cell-based. A digest of the protocol: (§1)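 Human HepG2 hepatocellular carcinoma cells (passage 20–25) were treated with compound at 10 μM in triplicate for 24 h at 37 °C, 5% CO2. Viability was then measured by MTT: 3 h incubation, formazan dissolved in DMSO, absorbance read at 570 nm.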

For the next series, the system named is HepG2 cells. As to the kind of experiment: Cytotoxicity assessment in vitro (MTT assay). It is filed as cell-based. The method in brief: as §1
On the technique in general: Tetrazolium dyes change colour on reduction, which living cells bring about.

Series [2] concerns hepatic stage of P. berghei. Description: In vitro activity against P. berghei hepatic stages (luciferase-expressing sporozoites in Huh-7 cells, bioluminescence). In kind it is cell-based, Plasmodium berghei. The note with it: for activity at 1 µM / activity at 10 µM / IC50: Plasmodium berghei; for activity at 1 µM / activity at 10 µM: DMSO = 100, read-out: INFECTION Ø screening; for activity against P. berghei hepatic stages: screening at 10 and 1 µM / IC50 determination. A digest of the protocol:
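Huh-7 hepatoma cells pretreated with compounds 1 h, then infected with luciferase-expressing P. berghei sporozoites (1 × 10^4/well, 1:1 ratio) and incubated at 37 °C.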

Series [3] has as its system P. falciparum NF54 ring-stage synchronized cultures. Description: In vitro activity against P. falciparum blood stages (flow cytometry, SYBR green I). The note with it: Control = 7.76333, 48 h. It is filed as cell-based, Plasmodium falciparum. (In general: In flow cytometry, cells or beads pass a laser one at a time.)
Series [4] relates to resistant Dd2 P. falciparum strain. The conditions noted are these: cited from earlier work.
The test system of series [5] is multidrug-resistant K1 strain. The arrangement: method as in doi:10.21577/0103-5053.20190061. The note with it: cited from earlier work.
Series [6] concerns chloroquine-sensitive 3D7 strain. The arrangement: method as in doi:10.21577/0103-5053.20190061. The note with it: cited from earlier work.
A further series deals with Plasmodium. The arrangement: method as in PMID 29243039. The conditions noted are these: tested previously, cited from earlier work.
[7] abbreviates: Huh-7, mean, unit (Table 1: µM), read-out: Antiplasmodial activity - Ø IC50.
The mark [8] stands for this setting: Huh-7, replicate 1, unit (Table 1: µM), read-out: Antiplasmodial activity - IC50 determination, 1. measurement.
The mark [9] stands for this setting: Huh-7, replicate 2, unit (Table 1: µM), read-out: Antiplasmodial activity - IC50 determination, 2. measurement.
[10] abbreviates: Huh-7, replicate 3, unit (Table 1: µM), read-out: Antiplasmodial activity - IC50 determination, 3. measurement.
Where [11] appears, read: hepatic stage, Huh-7 cells, parasite load 48 h post-infection, read-out: IC50 P. berghei.

Usually viability stands for the share of living cells, or the viability signal relative to a control. A word on the IC50: it is the concentration needed to halve the response being measured.

On to `COc1c2c(cc3c1OCO3)[C@]13C=C[C@H](OC)C[C@H]1N(C2)C[C@H]3OC(=O)c1ccc([N+](=O)[O-])cc1` [28q, 11-O-(4-Nitrobenzoyl)ambelline], for which the entries for the “CELL CONFLUENCY Ø screening” value with Huh-7 cell line (1 µM) and with Huh-7 cell line (10 µM) were 102 and 102.2, respectively. Further, the viability at 24 h, 10 µM in [1] was determined as 53 ± 6%. Also, in the series with HepG2 cells (human, 24 h, 10 µM), the “1. screening of cytotoxic potential, HepG2 cell line” value (from here on “1. screening of cytotoxic potential”) was found to be 48.34. Moreover, the “2. screening of cytotoxic potential, HepG2 cell line” value (from here on “2. screening of cytotoxic potential”) in the series with HepG2 cells (human, 24 h, 10 µM) came to 59.99. The “3. screening of cytotoxic potential, HepG2 cell line” value (from here on “3. screening of cytotoxic potential”) with HepG2 cells (human, 24 h, 10 µM) amounted to 49.2. The “Ø screening, HepG2 (sheet Graphs)” value in the series on HepG2 cells (human, 24 h, 10 µM) is 52.51. The activity at 1 µM in series [2] (Huh-7, 48 h) was determined as 64.6%. Moreover, the activity at 10 µM in series [2] (Huh-7, 48 h) amounted to 3.9%. Further, the IC50 was determined as 1.2 µM in series [2] (setting [7]); 1.17 µM in series [2] (setting [8]); 1.03 µM in series [2] (setting [9]); 1.39 µM in series [2] (setting [10]); 1.2 ± 0.18 µM in series [2] (setting [11]). Further, the “Ø screening, blood stage parasite load” value in [3] (at 10 nM) was found to be 6.94; in series [3] (at 500 nM) it was 4.487; in series [3] (at 100 nm) it was 4.835.

Regarding `COc1c2c(cc3c1OCO3)[C@]13C=C[C@H](OC)C[C@H]1N(C2)C[C@H]3OC(=O)c1ccc(C)c([N+](=O)[O-])c1` [28r, 11-O-(4-Methyl-3-nitrobenzoyl)ambelline], the “CELL CONFLUENCY Ø screening” value in the series with Huh-7 cell line (1 µM) came out at 94.75; in the series with Huh-7 cell line (10 µM), 52.08. Besides, the viability at 24 h, 10 µM in series [1] is 65 ± 8%. Besides, the “1. screening of cytotoxic potential” value in the series on HepG2 cells (human, 24 h, 10 µM) worked out at 69.43. In addition, in the series with HepG2 cells (human, 24 h, 10 µM), the “2. screening of cytotoxic potential” value is recorded as 55.1. The “3. screening of cytotoxic potential” value in the series on HepG2 cells (human, 24 h, 10 µM) was determined as 69.8. For the same compound, the “Ø screening, HepG2 (sheet Graphs)” value with HepG2 cells (human, 24 h, 10 µM) stood at 64.78. Also, in series [2] (Huh-7, 48 h), the activity at 1 µM amounted to 22.2%. Moreover, the activity at 10 µM in series [2] (Huh-7, 48 h) came to 1.01%. Further, the IC50 was determined as 0.41 µM in [2] (setting [7]); 0.358 µM in series [2] (setting [8]); 0.408 µM in series [2] (setting [9]); 0.465 µM in series [2] (setting [10]); 0.41 ± 0.054 µM in series [2] (setting [11]). The figures for the “Ø screening, blood stage parasite load” value in series [3] (at 10 nM), in series [3] (at 500 nM) and in series [3] (at 100 nm) were 8.177, 7.467 and 7.743, respectively.

`COc1c2c(cc3c1OCO3)[C@]13C=C[C@H](OC)C[C@H]1N(C2)C[C@H]3OC(=O)c1ccc([N+](=O)[O-])cc1Cl` [28s, 11-O-(2-Chloro-4-nitrobenzoyl)ambelline]: in the series on Huh-7 cell line (1 µM), the “CELL CONFLUENCY Ø screening” value was determined as 95.79. Besides, the “CELL CONFLUENCY Ø screening” value with Huh-7 cell line (10 µM) came to 77.1. The viability at 24 h, 10 µM in [1] stood at 54 ± 6%. For the same compound, in the series on HepG2 cells (human, 24 h, 10 µM), the “1. screening of cytotoxic potential” value amounted to 55.56; the “2. screening of cytotoxic potential” value came out at 46.62; the “3. screening of cytotoxic potential” value amounted to 58.6; the “Ø screening, HepG2 (sheet Graphs)” value was 53.59. For the same compound, in series [2] (Huh-7, 48 h), the activity at 1 µM stood at 48.2% and the activity at 10 µM came out at 1.4%. Also, the “activity against P. berghei hepatic stages” value in series [2] is on record as “not dose-dependent”. Also, in series [3] (at 10 nM), the “Ø screening, blood stage parasite load” value is 7.46. Besides, the “Ø screening, blood stage parasite load” value in [3] (at 500 nM) amounted to 7.523. In addition, the “Ø screening, blood stage parasite load” value in series [3] (at 100 nm) was determined as 7.653.

As to `COc1c2c(cc3c1OCO3)[C@]13C=C[C@H](OC)C[C@H]1N(C2)C[C@H]3OC(=O)c1ccc(Cl)c([N+](=O)[O-])c1` [28t, 11-O-(4-Chloro-3-nitrobenzoyl)ambelline], the “CELL CONFLUENCY Ø screening” value in the series on Huh-7 cell line (1 µM) amounted to 96.94. For the same compound, the “CELL CONFLUENCY Ø screening” value in the series with Huh-7 cell line (10 µM) is given as 92.83. In addition, the viability at 24 h, 10 µM in [1] stood at 15 ± 2%. In the series on HepG2 cells (human, 24 h, 10 µM), the “1. screening of cytotoxic potential” value is listed as 13.64; the “2. screening of cytotoxic potential” value came to 17.76; the “3. screening of cytotoxic potential” value is given as 14.19; the “Ø screening, HepG2 (sheet Graphs)” value was determined as 15.2. In [2] (Huh-7, 48 h), the activity at 1 µM was found to be 114% and the activity at 10 µM amounted to 92.6%. The “activity against P. berghei hepatic stages” value in series [2] was “not dose-dependent”. In addition, in series [3] (at 10 nM), the “Ø screening, blood stage parasite load” value is listed as 7.33. The “Ø screening, blood stage parasite load” value in [3] (at 500 nM) amounted to 7.613. In addition, the “Ø screening, blood stage parasite load” value in [3] (at 100 nm) was determined as 7.113.

In the case of `CC(=O)O[C@@H]1CC=C2CCN3Cc4cc5c(cc4[C@H]1[C@@H]23)OCO5` [compound 5, acetylcaranine], in series [4], the IC50 was 3500 ± 300 nM.

Turning to `O[C@H]1[C@H]2c3cc4c(cc3CN3CCC(=C[C@@H]1O)[C@H]23)OCO4` [compound 6, lycorine], the IC50 is 3100 nM in series [5] and 2500 nM in series [6].

Take `COc1c2c(cc3c1OCO3)[C@]13C=C[C@H](OC)C[C@H]1N(C2)C[C@@H]3O` [compound 28, ambelline]: the viability at 24 h, 10 µM in series [1] (c = 10 µM, 24 h, MTT, read-out: HepG2 % of cell viability compared to non-treated control (100%)) is 50 ± 1%. The “Ø screening, HepG2 (sheet Graphs)” value with HepG2 cells (c = 10 μM, DMSO = 100, in %) is recorded as 49.86. The “1. screening of cytotoxic potential” value in the series on HepG2 cells (c = 10 μM, replicate 1, in %) is recorded as 49.93. Also, in the series with HepG2 cells (c = 10 μM, replicate 2, in %), the “2. screening of cytotoxic potential” value was determined as 48.36. Moreover, the “3. screening of cytotoxic potential” value with HepG2 cells (c = 10 μM, replicate 3, in %) was determined as 51.3. The IC50 in series [4] is 7300 ± 300 nM; in series [2] (Huh-7, 48 h, read-out: IC50 P. berghei), greater than 10 µM. Besides, the “activity against P. berghei hepatic stages” value in series [2] is given as “neither haemanthamine nor ambelline showed inhibition”.

Take `COC1C=CC23c4cc5c(cc4CN(CC2O)C3C1)OCO5` (stereo not shown) [compound 29, haemanthamine]: the figures for the “antiplasmodial effect (words)” value in the series with Plasmodium and with Plasmodium (listed as haemanthamine) were “without notable activity” and “neither haemanthamine nor ambelline showed inhibition”, respectively.
